Test results published in ChEMBL document CHEMBL1138336, “Design and synthesis of novel and potent amide linked PPARgamma/delta dual agonists” (Bioorg Med Chem Lett, 2007).
pEC50, pIC50: −log10 of the molar value.

Columns and labels:
[1] = molecular target: T1, Peroxisome proliferator-activated receptor alpha (Homo sapiens, UniProt Q07869)
T1 sequence (Q07869 whole entry): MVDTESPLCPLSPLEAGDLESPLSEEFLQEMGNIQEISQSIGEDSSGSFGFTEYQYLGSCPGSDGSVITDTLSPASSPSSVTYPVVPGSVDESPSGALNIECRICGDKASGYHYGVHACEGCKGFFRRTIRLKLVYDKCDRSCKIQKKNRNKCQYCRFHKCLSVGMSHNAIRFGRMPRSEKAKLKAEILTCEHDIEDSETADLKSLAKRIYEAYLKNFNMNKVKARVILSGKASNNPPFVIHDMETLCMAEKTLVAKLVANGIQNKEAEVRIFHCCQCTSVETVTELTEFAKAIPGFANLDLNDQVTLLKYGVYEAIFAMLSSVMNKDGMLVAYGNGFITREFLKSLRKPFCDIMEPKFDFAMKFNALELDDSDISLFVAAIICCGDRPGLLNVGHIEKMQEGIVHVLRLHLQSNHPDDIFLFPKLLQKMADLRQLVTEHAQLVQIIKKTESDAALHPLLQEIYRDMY

[2] = molecular target: T2, Peroxisome proliferator-activated receptor delta (Homo sapiens, UniProt Q03181)
T2 sequence (Q03181 whole entry): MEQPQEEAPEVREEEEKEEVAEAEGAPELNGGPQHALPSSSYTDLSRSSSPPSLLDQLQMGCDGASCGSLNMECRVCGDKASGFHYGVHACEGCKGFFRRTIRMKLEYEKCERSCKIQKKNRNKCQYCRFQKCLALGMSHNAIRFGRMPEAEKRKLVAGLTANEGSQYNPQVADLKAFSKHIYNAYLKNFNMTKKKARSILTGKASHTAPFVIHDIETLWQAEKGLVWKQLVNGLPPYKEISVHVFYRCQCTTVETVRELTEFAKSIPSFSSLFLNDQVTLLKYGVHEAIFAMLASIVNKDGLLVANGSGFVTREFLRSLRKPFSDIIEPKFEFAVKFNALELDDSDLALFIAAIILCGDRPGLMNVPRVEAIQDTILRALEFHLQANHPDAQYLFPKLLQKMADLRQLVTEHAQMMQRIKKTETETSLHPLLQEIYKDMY

[3] = molecular target: T1, Peroxisome proliferator-activated receptor alpha; remark: listed apart in the source
[4] = molecular target: T2, Peroxisome proliferator-activated receptor delta; remark: listed apart in the source
[5] = organism: Rattus norvegicus; test: animal or person; format: functional; conditions: ZDF, po, 168 h

Row | SMILES | pIC50 [1] | pEC50 [2] | pEC50 [3] | pIC50 [4] | ED50 [5] [mg/kg]
1 | Cc1cc(Oc2cccc(CNC(=O)c3ccc(C(F)(F)F)cc3C)c2)ccc1CCC(=O)O | < 5.00 | 7.48 | 5.54 | 8.30 | –
2 | Cc1cc(Oc2cccc(CNC(=O)c3c(C)c4cc(Cl)ccc4n3C)c2)ccc1CCC(=O)O | < 5.00 | 8.40 | 5.58 | 8.52 | –
3 | Cc1cc(Oc2cccc(CNC(=O)c3cc4cc(Cl)ccc4n3C)c2)ccc1CCC(=O)O | < 5.00 | 7.06 | 5.56 | 8.52 | –

Further compounds by rising pIC50 [1], results first:

Row | pIC50 [1] | pEC50 [2] | pEC50 [3] | pIC50 [4] | SMILES | ED50 [5] [mg/kg]
4 | 4.99 | – | 5.55 | – | CCc1cc(Oc2cc(F)cc([C@@H](C)NC(=O)c3c(C)c4cc(Cl)ccc4n3C)c2)ccc1CCC(=O)O | 0.82
5 | 5.03 | – | – | – | CCc1cc(Oc2cc(F)cc([C@@H](C)NC(=O)c3sc4ccc(Cl)cc4c3C)c2)ccc1CCC(=O)O | –
